From patent US7585850B2 (Adenobio N.V., priority 2005, dated 2009)

What was measured:
normotensive Wistar rats [1] = test: Effect of oral and IV 330A1 on blood pressure of normotensive Wistar rats; format: in vivo, rat
Experimental: (§1) The experiment was performed in 10 male Wistar rats (340 to 410 g; 5 in the treated group and 5 in the control group). Animals were maintained for two weeks of adaptation in humidity and temperature controlled room and were fed a standard diet (U.A.R, Villemoisson, France). Each animal, (control or treated) was anaesthetized with sodium pentobarbital (6%, 0.9 ml/Kg body weight). The left carotid artery was cannulated with a PE50 polyethylene catheter connected to a pressure transducer (MacLabs, ADInstruments, Hastings, UK). Blood pressure was monitored continuously and recorded. Adb011 was administered orally by gavage at the dose of 50 mg/kg (in Arabic syrup 5%).
(§2) The experiment is similar to example 3.
• 330A1-I (n=4): receiving by gavage the product (50 mg/kg in suspension with Arabic syrup 30 mg/ml) • Control-(n=4)I: receiving by gavage Arabic syrup 30 mg/ml alone • 330A1-II: receiving the product IV (10 mg/kg in suspension with distilled water 30 mg/ml) • Control-II (n=4): receiving IV distilled water

[2] = in vivo; cited from earlier work
normotensive Wistar rats [3] = test: Effect of oral Adb111 (AMP complex) on blood pressure of normotensive Wistar rats and comparison with AMP; format: in vivo, rat
Experimental: as §1, with “Adb011 was administered orally by gavage at the dose of 50 mg/kg (in Arabic syrup 5%).” left out
as §2

normotensive Wistar rats [4] = test: Effect of oral administration of Adb011 on blood pressure of normotensive Wistar rats; format: in vivo, rat
Experimental: as §1
Results are reported as mean±SEM of n experiments. Multiple measurement analysis was performed using ANOVA, followed by Bonferroni-Dunn test. Statistical significance was accepted for p values less than 0.05.
Blood pressure began to decrease after 30 minutes of Adb-011 administration. It reached a significant maximal decrease of −13.9 mmHg between 70 and 100 min. (with respect to vehicle values, p<0.05 ANOVA multiple measurement analysis followed by a Bonferroni-Dunn test) and returned to normal after 110-120 minutes.

rats = test: Effects of Adb011 by the IV route on systemic arterial pressure in rats; format: in vivo, rat; conditions: 10 mg/kg IV bolus
Experimental: as §1, §2
• Adb-011 (n=4): receiving IV a bolus of Adb-011 (10 mg/kg in suspension with distilled water 30 mg/ml) • Control (n=3): receiving IV (distilled water)
In the treated group, blood pressure began to decrease after 15 min of the Adb011 administration and reached a significant maximal decrease of 48 mmHg at […].

hypoxic rats = test: Effect of oral Adb011 on chronic pulmonary hypertension caused by hypoxia in rats; format: in vivo, rat
Experimental: Animals were divided in three groups: • Adb-011 chronic treatment (n=5): receiving by gavage Adb-011 (50 mg/kg in suspension with Arabic syrup, 20 mg/ml) twice a day (morning and evening) for 14 days. • Control (n=6): receiving by gavage vehicle (suspension of Arabic syrup 20 mg/kg). • Adb-011 acute treatment (n=6): receiving by gavage vehicle for 14 days and orally treated with a single dose of Adb-011 on the last day (day of surgery). Rats were placed in a chamber where air was circulated at a pressure of 380 Torr, which corresponds to an altitude of 5500 meters. The chamber was open twice a day for ˜30 minutes to treat animals and to replace food and water. On the day of surgery the animals were removed from the chamber and anesthetized with pentobarbital sodium (60 mg/kg ip). A polyethylene catheter (PE-50) was placed in the aortic arch via the left carotid artery. An introducer was advanced in the right ventricle via the right jugular vein. Adequate placement of both catheters was established by the pressure waveform. Both catheters were connected to a pressure transducer (Biopac MP30, BIOPAC Systems, Inc.). The time-lag between last dose of Adb-011 (in group 1) and blood pressure measurement was 14 hours.

[5] = in vivo; cited from earlier work; remark: listed apart in the source
[6] = oral administration, conclusion over doses
[7] = 50 mg/kg p.o. twice a day for 14 days, chronic hypoxia
[8] = HxC + A 15 min: single oral dose on day of surgery
[9] = HxC + A 60 min: single oral dose on day of surgery, 60 min

For `CC(=O)Nc1ccc(C(=O)O)cc1.CC(O)CN(C)C` [330A1], the “effect on mean arterial blood pressure” value (normotensive Wistar rats [1]; 10 mg/kg IV) was “minor effect” and the “effect on mean arterial blood pressure” value (normotensive Wistar rats [1]; 50 mg/kg by gavage) was “minor effect”.
In the case of `Nc1ncnc2c1ncn2[C@@H]1O[C@H](COP(=O)(O)O)[C@@H](O)[C@H]1O` [AMP, adenosine monophosphate, reference compound], the gastrointestinal bioavailability [2] is listed as “poor”, the “time after administration at which blood pressure began to decrease” value (shortened to “time after administration … to decrease”) (normotensive Wistar rats [3]; 100 mg/kg by gavage) is listed as 45 min and the “time after which blood pressure returned to normal values” (from here on “time … to normal values”) (normotensive Wistar rats [3]; 100 mg/kg by gavage) is listed as 120 min. For the same compound, the “time after administration … to decrease” value (normotensive Wistar rats [3]; 300 mg/kg by gavage) was 45 min, the “time … to normal values” (normotensive Wistar rats [3]; 300 mg/kg by gavage) was 120 min and the “time for which blood pressure was lowered” value (normotensive Wistar rats [3]; [6]) was 60 min.
With `CC(=O)Nc1ccc(C(=O)O)cc1.CC(=O)Nc1ccc(C(=O)O)cc1.CC(=O)Nc1ccc(C(=O)O)cc1.CC(O)CN(C)C.CC(O)CN(C)C.CC(O)CN(C)C.Nc1ncnc2c1ncn2[C@@H]1O[C@H](CO)[C@@H](O)[C@H]1O` [Adb011] the “time after which blood pressure returned to normal” value (normotensive Wistar rats [4]; 50 mg/kg p.o.) was 110 to 120 min, the “time after administration … to decrease” value (normotensive Wistar rats [4]; 50 mg/kg p.o. by gavage, anaesthetized rats) was 30 min and the “maximal decrease of blood pressure” value (normotensive Wistar rats [4]; 50 mg/kg p.o., with respect to vehicle values, p<0.05) was −13.9 mmHg. The “maximal decrease of blood pressure” value (rats) was 48 mmHg, the “mean arterial blood pressure two hours after injection” value (rats) was “still very low two hours after injection” and the “time after administration … to decrease” value (rats) was 15 min. The “time of maximal decrease of blood pressure” value (rats) was 15 min, the “change of right ventricular hypertrophy” value (hypoxic rats; [7]) was -75 mg and the “decrease of pulmonary hypertension” value (hypoxic rats; [7]) was 21.5 mmHg. The “effect on systemic pressure” value (hypoxic rats; [7]) was “no effect”, the “RVp (right ventricular pressure)” value (hypoxic rats; HxA: chronic treatment 50 mg/kg p.o. twice a day 14 days, measured 14 h after last dose) was 53.30 ± 461 mmHg and the “(LV + S)w (left ventricular + septum weight)” value (hypoxic rats; HxA: chronic treatment 14 days) was 729 ± 56. The “C(a − v)O2 (arterial − venous O2 difference)” value (hypoxic rats; HxA: chronic treatment 14 days) was 8.0 ± 0.4 mL O2/dL blood, the “CaO2 (arterial O2 content)” value (hypoxic rats; HxA: chronic treatment 14 days) was 29.2 ± 0.9 mL O2/dL of blood and the Cardiac output (hypoxic rats; HxA: chronic treatment 14 days) was 162 ± 8 mL/min/kg. The “CvO2 (venous O2 content)” value (hypoxic rats; HxA: chronic treatment 14 days) was 21.2 ± 1.0 mL O2/dL of blood, the “HR (heart rate)” value (hypoxic rats; HxA: chronic treatment 14 days) was 364 ± 15 beat/min and the “MABP (mean arterial blood pressure)” value (hypoxic rats; HxA: chronic treatment 14 days) was 113 ± 2 mmHg. For the same compound, the “RVw (right ventricular weight)” value (hypoxic rats; HxA: chronic treatment 14 days) was 362 ± 10 mg, the “SV (stroke volume)” value (hypoxic rats; HxA: chronic treatment 14 days) was 0.45 ± 0.02 mL/kg and the “SVR (systemic vascular resistance)” value (hypoxic rats; HxA: chronic treatment 14 days) was 0.70 ± 0.03. The “SaO2 (arterial oxygen saturation)” value (hypoxic rats; HxA: chronic treatment 14 days) was 92 ± 1 %, the “VO2 (oxygen consumption)” value (hypoxic rats; HxA: chronic treatment 14 days) was 12.81 ± 0.29 mL/min/kg and the “(LV + S)w (left ventricular + septum weight)” value (hypoxic rats; [8]) was 675 ± 21. For the same compound, the “C(a − v)O2 (arterial − venous O2 difference)” value (hypoxic rats; [8]) was 8.3 ± 0.5 mL O2/dL blood, the “CaO2 (arterial O2 content)” value (hypoxic rats; [8]) was 27.3 ± 1.4 mL O2/dL of blood and the Cardiac output (hypoxic rats; [8]) was 164 ± 11 mL/min/kg. The “CvO2 (venous O2 content)” value (hypoxic rats; [8]) was 19.0 ± 1.5 mL O2/dL of blood, the “HR (heart rate)” value (hypoxic rats; [8]) was 352 ± 12 beat/min and the “MABP (mean arterial blood pressure)” value (hypoxic rats; [8]) was 107 ± 5 mmHg. The “RVw (right ventricular weight)” value (hypoxic rats; [8]) was 436 ± 21 mg, the “SV (stroke volume)” value (hypoxic rats; [8]) was 0.47 ± 0.03 mL/kg and the “SVR (systemic vascular resistance)” value (hypoxic rats; [8]) was 0.68 ± 0.06. The “SaO2 (arterial oxygen saturation)” value (hypoxic rats; [8]) was 82 ± 4%, the “VO2 (oxygen consumption)” value (hypoxic rats; [8]) was 13.38 ± 0.61 mL/min/kg and the “RVp (right ventricular pressure)” value (hypoxic rats; HxC + A 15 min: single oral dose on day of surgery, 15 min) was 75.17 ± 0.95 mmHg. The “HR (heart rate)” value (hypoxic rats; [9]) was 329 ± 4 beat/min, the “MABP (mean arterial blood pressure)” value (hypoxic rats; [9]) was 92 ± 5 mmHg and the “RVp (right ventricular pressure)” value (hypoxic rats; [9]) was 52.83 ± 3.83 mmHg. The “reduction of pulmonary artery pressure” value (hypoxic rats; acute single oral dose, rats with fixed pulmonary hypertension) was −22 mmHg.
With `CC(=O)Nc1ccc(C(=O)O)cc1.CC(=O)Nc1ccc(C(=O)O)cc1.CC(=O)Nc1ccc(C(=O)O)cc1.CC(O)CN(C)C.CC(O)CN(C)C.CC(O)CN(C)C.Nc1ncnc2c1ncn2[C@@H]1O[C@H](COP(=O)(O)O)[C@@H](O)[C@H]1O` [Adb111] the “time after administration … to decrease” value (normotensive Wistar rats [3]; 100 mg/kg by gavage) was 45 min, the “time … to normal values” (normotensive Wistar rats [3]; 100 mg/kg by gavage) was 180 min and the “time after administration … to decrease” value (normotensive Wistar rats [3]; 300 mg/kg by gavage) was 45 min. The “time … to normal values” (normotensive Wistar rats [3]; 300 mg/kg by gavage) was 180 min, the “time after oral administration at which blood pressure lowering began” value (normotensive Wistar rats [3]; [6]) was 45 min and the “time for which blood pressure was lowered” value (normotensive Wistar rats [3]; [6]) was “up to 165 min”. The “bioavailability and efficacy compared with natural AMP” value (normotensive Wistar rats [3]; oral, comparable doses) was “better bioavailabity and efficacy over natural AMP”.
For `Nc1ncnc2c1ncn2[C@@H]1O[C@H](CO)[C@@H](O)[C@H]1O` [adenosine], the plasma half-life [5] is given as “less than 5 seconds”.
